Assay results published in patent US20260209263A1, “UNNATURAL SUGAR, AND SYNTHESIS METHOD THEREFOR AND USE THEREOF” (HEFEI LINXCELL BIOTECHNOLOGIES CO., LTD, priority 2022, published 2026).

Key:
[1] = system: HeLa cells; test: Metabolic glycan labeling in living HeLa cells, Cy5 in-gel fluorescence; assay type: cell-based; conditions: for labeling efficiency compared with 1,6-Pr2GalNAz or 1,6-Pr2ManNAz: 200 μM; for labeling efficiency compared with GalNAz or ManNAz: 200 μM of 1,6-bis-acylated sugar vs 2 mM of sugar without protecting groups
Description: In order to verify the metabolic labeling effect of the above-mentioned 1,6-bis-acylated unnatural sugars in living cells, HeLa cells were metabolically labeled with the above-mentioned different compounds. The specific steps are as follows:
200 μM of 1,6-bis-acylated unnatural sugar and 2 mM of sugar without protecting groups were added to a culture medium of HeLa cells for culture, and then bioorthogonal reaction was carried out with Cy5 fluorescently labeled substances, and in-gel fluorescence detection was performed on the differently treated HeLa cells. The detection results are shown in FIGS. 2A-2C (CBB in FIGS. 3A-3D represents Coomassie Brilliant Blue staining to show the loading amount control).

[2] = system: B6D2F1/J mice; test: Metabolic labeling in vivo in mice, in-gel fluorescence of organ homogenates; conditions: intraperitoneal, 500 mg/kg every day for 3 or 7 consecutive days; heart, lung, spleen
Description: In the in vivo mouse experiment, B6D2F1/J mice were intraperitoneally injected with 1,6-Pr2GalNAz or 1,6-Pr2ManNAz (both at a concentration of 500 mg/kg) every day for 3 or 7 consecutive days. The mice were euthanized on the 4th or 8th day, and different organs were selected for homogenization. The azide-modified glycoproteins were click-labeled and separated by SDS-PAGE.

[3] = system: MCF7-AGX2F383G-T2A-GFP cells; test: Metabolic glycan labeling in MCF-7 cells overexpressing mutant enzyme AGX2F383G; assay type: cell-based
Source text: (§1) The above data well illustrate that 1,6-bis-acylated azidosugars can be metabolically labeled at much lower concentrations than unprotected azidosugars.

[4] = system: MCF-7 (MCF7-T2A-GFP) cells; test: Metabolic glycan labeling in MCF-7 cells expressing GFP; assay type: cell-based
Source text: as §1

Row | Compound | labeling efficiency compared with 1,6-Pr2GalNAz or 1,6-Pr2ManNAz [1] | in vivo metabolic labeling of glycoproteins from organs [2] | labeling efficiency compared with GalNAz or ManNAz [1] | further results
1 | CC(=O)OCC1OC(OC(C)=O)C(NC(=O)CN=[N+]=[N-])C(O)C1O (centres unmarked) [1,6-Ac2GalNAz] | much lower | – | – | –
2 | CCCC(=O)OCC1OC(OC(=O)CCC)C(NC(=O)CN=[N+]=[N-])C(O)C1O (centres unmarked) [1,6-Bu2GalNAz] | comparable | – | – | –
3 | CCC(=O)OC[C@H]1OC(OC(=O)CC)[C@H](NC(=O)CN=[N+]=[N-])[C@@H](O)[C@H]1O (some centres unmarked) [1,6-Pr2GalNAz] | – | glycoproteins from the heart, lung, and spleen could be well labeled | close to or slightly stronger than 2 mM of sugar without protecting groups | –
4 | CCC(=O)OCC1OC(OC(=O)CC)C(NC(=O)CN=[N+]=[N-])C(O)C1O (centres unmarked) [1,6-Pr2ManNAz] | – | glycoproteins from the heart, lung, and spleen could be well labeled | close to or slightly stronger than 2 mM of sugar without protecting groups | –
5 | [N-]=[N+]=NCC(=O)N[C@H]1C(O)O[C@H](CO)[C@@H](O)[C@@H]1O (some centres unmarked) [GlcNAz] | – | – | – | metabolic labeling [3]: produced obvious labeling; metabolic labeling [4]: neither GlcNAz nor 1,6-bis-acylated GlcNAz treatment resulted in obvious labeling
